Experimental data reported in US20250271426A1, “REDUCTION OF BITTER TASTE OF ACTIVE PHARMACEUTICAL INGREDIENTS AND RELATED ASSAYS AND SCREENING METHODS” (Firmenich Incorporated, priority 2022, published 2025).

Legend:
Test in all cases: FLIPR calcium assay, cells with promiscuous G protein transfected with bitter receptor cDNA
Assay type in all cases: cell-based
Settings in all cases: responsive if cellular response of >10% over baseline, Fluo4-AM
[1] = molecular target: T1, T2R receptor SEQ ID NO: 1 (S1) (Homo sapiens, UniProt Q9NYW7)
T1 construct: expressed in transfected cells; host or cells: cells expressing a promiscuous G protein (e.g., G16g44)
T1 sequence (Q9NYW7 1-299): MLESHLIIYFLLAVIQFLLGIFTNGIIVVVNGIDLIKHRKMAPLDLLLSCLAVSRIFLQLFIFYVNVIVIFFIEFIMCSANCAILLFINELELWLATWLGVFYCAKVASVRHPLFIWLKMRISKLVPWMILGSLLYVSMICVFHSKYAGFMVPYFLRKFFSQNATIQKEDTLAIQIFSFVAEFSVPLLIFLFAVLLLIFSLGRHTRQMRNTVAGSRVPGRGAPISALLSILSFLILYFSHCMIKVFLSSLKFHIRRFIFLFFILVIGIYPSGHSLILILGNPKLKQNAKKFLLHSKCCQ
Experimental: (§1) Cells expressing a promiscuous G protein (e.g., G16g44) were transfected with vectors encoding 22 functional bitter receptor cDNAs, with one receptor per transfection. The cells were transfected directly in 384-well format high-density plates and incubated for 28 hours. Later, cells were loaded with the Ca-specific dye Fluo4-AM. After an incubation of 60 minutes, excess dye is washed off, and cells are stimulated with respective bitter agonists while simultaneously recording changes in intracellular fluorescence using a FLIPR instrument.
(§2) The above protocol was carried out using 94 different active pharmaceutical ingredients (APIs) that span a wide range of different APIs having a diversity of chemical structures. A particular T2R receptor was identified as being responsive to a particular API if it triggered a cellular response of >10% over baseline.

[2] = molecular target: T2, T2R receptor SEQ ID NO: 5 (S5) (Homo sapiens, UniProt P59534)
T2 construct: expressed in transfected cells; host or cells: cells expressing a promiscuous G protein (e.g., G16g44)
T2 sequence (P59534 18-338): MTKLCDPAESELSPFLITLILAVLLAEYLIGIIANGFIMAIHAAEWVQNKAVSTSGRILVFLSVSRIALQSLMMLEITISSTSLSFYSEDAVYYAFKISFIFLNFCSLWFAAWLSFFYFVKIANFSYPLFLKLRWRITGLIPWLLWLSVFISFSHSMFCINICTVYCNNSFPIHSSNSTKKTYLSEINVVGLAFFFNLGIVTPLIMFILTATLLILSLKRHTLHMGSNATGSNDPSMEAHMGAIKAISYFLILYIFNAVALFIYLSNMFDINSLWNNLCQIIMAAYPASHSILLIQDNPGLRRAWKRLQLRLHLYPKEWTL
Experimental: as §1, §2

[3] = molecular target: T3, T2R receptor SEQ ID NO: 6 (S6) (Homo sapiens, UniProt P59540)
T3 construct: expressed in transfected cells; host or cells: cells expressing a promiscuous G protein (e.g., G16g44)
T3 sequence (P59540 1-309): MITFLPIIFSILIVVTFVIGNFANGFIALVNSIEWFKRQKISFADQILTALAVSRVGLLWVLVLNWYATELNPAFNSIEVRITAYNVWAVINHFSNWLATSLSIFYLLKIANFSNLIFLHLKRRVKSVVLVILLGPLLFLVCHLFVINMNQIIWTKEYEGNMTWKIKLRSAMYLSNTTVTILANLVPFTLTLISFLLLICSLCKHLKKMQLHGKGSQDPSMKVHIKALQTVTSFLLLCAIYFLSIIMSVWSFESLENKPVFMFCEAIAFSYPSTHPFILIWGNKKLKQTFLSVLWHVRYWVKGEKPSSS
Experimental: as §1, §2

[4] = molecular target: T4, T2R receptor SEQ ID NO: 3 (S3) (Homo sapiens, UniProt Q9NYW0, T156M)
T4 construct: expressed in transfected cells; host or cells: cells expressing a promiscuous G protein (e.g., G16g44)
T4 sequence (Q9NYW0 1-307 T156M): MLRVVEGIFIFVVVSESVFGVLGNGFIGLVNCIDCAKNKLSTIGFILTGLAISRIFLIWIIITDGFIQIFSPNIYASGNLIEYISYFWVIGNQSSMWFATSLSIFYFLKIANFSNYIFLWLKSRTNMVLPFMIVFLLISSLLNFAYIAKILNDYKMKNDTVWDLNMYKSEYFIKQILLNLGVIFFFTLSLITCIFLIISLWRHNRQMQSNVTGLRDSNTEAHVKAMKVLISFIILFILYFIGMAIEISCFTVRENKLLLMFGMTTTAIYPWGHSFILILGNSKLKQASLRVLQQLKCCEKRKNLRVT
Experimental: as §1, §2

[5] = molecular target: T5, T2R receptor SEQ ID NO: 4 (S4) (Homo sapiens, UniProt Q9NYV8)
T5 construct: expressed in transfected cells; host or cells: cells expressing a promiscuous G protein (e.g., G16g44)
T5 sequence (Q9NYV8 1-317): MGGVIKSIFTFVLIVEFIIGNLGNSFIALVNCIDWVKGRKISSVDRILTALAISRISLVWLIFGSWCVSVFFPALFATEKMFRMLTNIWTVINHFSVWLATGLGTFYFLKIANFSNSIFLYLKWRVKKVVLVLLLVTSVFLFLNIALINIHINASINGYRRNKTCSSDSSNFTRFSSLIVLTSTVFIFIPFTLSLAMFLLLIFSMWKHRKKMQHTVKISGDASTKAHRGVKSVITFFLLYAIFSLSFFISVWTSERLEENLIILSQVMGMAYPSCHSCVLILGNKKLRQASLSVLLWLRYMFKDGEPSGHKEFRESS
Experimental: as §1, §2

SMILES | S1 positive response of T2R receptor to API [1] | S5 positive response of T2R receptor to API [2] | S6 positive response of T2R receptor to API [3] | S3 positive response of T2R receptor to API [4] | S4 positive response of T2R receptor to API [5]
CC[N+](C)(C)c1cccc(O)c1 [Edrophonium] | + (a “+” to indicate whether a particular T2R receptor showed a positive response to a particular API) | + (a “+” to indicate whether a particular T2R receptor showed a positive response to a particular API) | + (a “+” to indicate whether a particular T2R receptor showed a positive response to a particular API) | – | –
COC(=O)[C@@H]1[C@H]2C[C@H]3c4[nH]c5ccccc5c4CCN3C[C@@H]2CC[C@@H]1O [Yohimbine] | + (a “+” to indicate whether a particular T2R receptor showed a positive response to a particular API) | – | + (a “+” to indicate whether a particular T2R receptor showed a positive response to a particular API) | + (a “+” to indicate whether a particular T2R receptor showed a positive response to a particular API) | –
CC12CCC(CC1)C(C)(C)O2 [Eucalyptol] | + (a “+” to indicate whether a particular T2R receptor showed a positive response to a particular API) | – | – | – | + (a “+” to indicate whether a particular T2R receptor showed a positive response to a particular API)
CC(C)(C(=O)O)c1ccc(C(O)CCCN2CCC(C(O)(c3ccccc3)c3ccccc3)CC2)cc1 (stereo not shown) [Fexofenadine] | + (a “+” to indicate whether a particular T2R receptor showed a positive response to a particular API) | + (a “+” to indicate whether a particular T2R receptor showed a positive response to a particular API) | + (a “+” to indicate whether a particular T2R receptor showed a positive response to a particular API) | – | –
CC(=O)Oc1ccc(C(c2ccc(OC(C)=O)cc2)c2ccccn2)cc1 [Bisacodyl] | + (a “+” to indicate whether a particular T2R receptor showed a positive response to a particular API) | – | + (a “+” to indicate whether a particular T2R receptor showed a positive response to a particular API) | – | + (a “+” to indicate whether a particular T2R receptor showed a positive response to a particular API)
CCN(CC)CCNC(=O)c1ccc(N)cc1 [Procaineamide] | – | + (a “+” to indicate whether a particular T2R receptor showed a positive response to a particular API) | + (a “+” to indicate whether a particular T2R receptor showed a positive response to a particular API) | + (a “+” to indicate whether a particular T2R receptor showed a positive response to a particular API) | –
C=C[C@H]1C[N@@]2CC[C@H]1C[C@H]2[C@H](O)c1ccnc2ccc(OC)cc12 [Quinine] | – | + (a “+” to indicate whether a particular T2R receptor showed a positive response to a particular API) | + (a “+” to indicate whether a particular T2R receptor showed a positive response to a particular API) | + (a “+” to indicate whether a particular T2R receptor showed a positive response to a particular API) | + (a “+” to indicate whether a particular T2R receptor showed a positive response to a particular API)
Cc1cc(N)c2ccccc2[n+]1CCCCCCCCCC[n+]1c(C)cc(N)c2ccccc21 [Dequalinium] | – | + (a “+” to indicate whether a particular T2R receptor showed a positive response to a particular API) | + (a “+” to indicate whether a particular T2R receptor showed a positive response to a particular API) | – | –
CC(=O)Nc1ccc(O)cc1 [Acetaminophen] | – | + (a “+” to indicate whether a particular T2R receptor showed a positive response to a particular API) | – | – | –
COC(=O)[C@H](c1ccccc1Cl)N1CCc2sccc2C1 [Clopidogrel] | + (a “+” to indicate whether a particular T2R receptor showed a positive response to a particular API) | – | – | + (a “+” to indicate whether a particular T2R receptor showed a positive response to a particular API) | –
COc1cc2c(c(OC)c1OC)-c1ccc(OC)c(=O)cc1[C@@H](NC(C)=O)CC2 [Colchicine] | – | + (a “+” to indicate whether a particular T2R receptor showed a positive response to a particular API) | + (a “+” to indicate whether a particular T2R receptor showed a positive response to a particular API) | – | –
CC[C@H]1OC(=O)[C@H](C)[C@@H](O[C@H]2C[C@@](C)(OC)[C@@H](O)[C@H](C)O2)[C@H](C)[C@@H](O[C@@H]2O[C@H](C)C[C@H](N(C)C)[C@H]2O)[C@](C)(OC)C[C@@H](C)C(=O)[C@H](C)[C@@H](O)[C@]1(C)O [Clarithromycin] | + (a “+” to indicate whether a particular T2R receptor showed a positive response to a particular API) | + (a “+” to indicate whether a particular T2R receptor showed a positive response to a particular API) | – | + (a “+” to indicate whether a particular T2R receptor showed a positive response to a particular API) | –
CC(CCc1ccccc1)NCC(O)c1ccc(O)c(C(N)=O)c1 (stereo not shown) [Labetalol] | – | + (a “+” to indicate whether a particular T2R receptor showed a positive response to a particular API) | + (a “+” to indicate whether a particular T2R receptor showed a positive response to a particular API) | + (a “+” to indicate whether a particular T2R receptor showed a positive response to a particular API) | –
Cc1cc(NS(=O)(=O)c2ccc(N)cc2)no1 [Sulfamethoxazole] | + (a “+” to indicate whether a particular T2R receptor showed a positive response to a particular API) | – | – | – | –
CC1(C)S[C@@H]2[C@H](NC(=O)[C@H](N)c3ccc(O)cc3)C(=O)N2[C@H]1C(=O)O [Amoxicillin] | + (a “+” to indicate whether a particular T2R receptor showed a positive response to a particular API) | – | – | – | –
CCN(CC)CC#CCOC(=O)C(O)(c1ccccc1)C1CCCCC1 (stereo not shown) [Oxybutynin Chloride] | – | + (a “+” to indicate whether a particular T2R receptor showed a positive response to a particular API) | + (a “+” to indicate whether a particular T2R receptor showed a positive response to a particular API) | + (a “+” to indicate whether a particular T2R receptor showed a positive response to a particular API) | + (a “+” to indicate whether a particular T2R receptor showed a positive response to a particular API)
